For test [1], the system named is SH-SY5Y cells. Description: Immunocytochemistry colocalization of Aβ with LC3 and LAMP2. Format: cell-based, human. To be noted: Aβ 1 µM, 24 h, n = 6, N = 3. Here is the method: Cells were cultured on glass coverslips and treated similarly as mentioned above. After treatment, cells were subsequently washed and fixed with 4% paraformaldehyde in PBS for 15 min. […] Incubation with primary antibodies (respective dilutions in blocking buffer) was performed overnight at 4°C. Next day, coverslips were washed and incubated with respective secondary antibodies (respective dilutions in blocking buffer) for 1 h at RT. Removal of the secondary antibody solution was followed by washes with PBS (thrice) and distilled water (once) and coverslips were mounted on the slides using ImmuMount (ThermoFisher Scientific - Shandon EprediaTM, 9990412). […] Quantification of the number of autophagic compartments (Figure S6B) was done manually using a 10 μm^2 ROI grids, placed in the cytosolic region of the individual cells using the “rule of L” counting method. […] All images were processed and analyzed using Fiji ImageJ software. […] Distance from the plaque core (Figure 1B) was measured using the concentric circles plugin module. Fluorescence intensity of the green channel (Figure S3A-B), and the number of neurons positive for Aβ signals (Figure S3-D) were quantified using the processing module of Keyence software. […] Intensity of green and red channel for a particular ROI was calculated and ratios of the individual values were computed (Figure 6B and S7A). […]

The subject of test [2] is SH-SY5Y cells. Description: Autophagic flux with tandem reporter GFP-LC3-RFP-LC3Δ. The format is cell-based, human. Conditions: Aβ 1 µM, 24 h; compared to control cells; n = 6, N = 3. As to the method: SH-SY5Y cells were transfected with either GFP-LC3-LC3Δ-RFP or mCherry-GFP-LC3B tandem constructs (0.5 μg/well +1 µl transfection reagent − 24 well plate) with Lipofectamine 2000 (Life Technologies, 11668019) in OptiMEM (Life Technologies, 11058021) in DMEM/F-12, FCS^− PS^− media. After 8 h, FCS^− PS^− media was changed to normal culture media, respectively. Transfection efficiency was around 50–60% in all analyzed coverslips.
SH-SY5Y cells seeded on D1, were treated with Aβ variants (1 μM) on D3 in DMEM/F-12 media without serum and antibiotics. Control treatment included treatment with equal volume of 10 mM NaOH solution used for preparing the Aβ stock solutions, in respective cell culture medium. […]
All images were processed and analyzed using Fiji ImageJ software. […] Distance from the plaque core (Figure 1B) was measured using the concentric circles plugin module. Fluorescence intensity of the green channel (Figure S3A-B), and the number of neurons positive for Aβ signals (Figure S3-D) were quantified using the processing module of Keyence software. […] Intensity of green and red channel for a particular ROI was calculated and ratios of the individual values were computed (Figure 6B and S7A). For computing the number of mCherry^+GFP^± vesicles or per cell (Figure 6D and S7B), cell outline was drawn manually and number of vesicles per cell (nucleus count – DAPI) was calculated. […]

Turning to “amyloid-β phosphorylated at serine residue 26 [p-Ser26Aβ]”, the “Colocalization with LAMP2” value in the test with SH-SY5Y cells [1] is given as “predominant colocalization”. Take “amyloid-β phosphorylated at serine residue 8 [p-Ser8Aβ]”: the “Accumulation in LC3-positive autophagosomal structures” value in the test on SH-SY5Y cells [1] is given as “preferential accumulation”. “non-phosphorylated amyloid-β [npAβ, reference compound]”: the “RFP:GFP ratio (autophagic flux)” value in the test on SH-SY5Y cells [2] is reported as “tended to increase”.

(Values after paper PMC10761119, “Phosphorylation-state dependent intraneuronal sorting of Aβ differentially impairs autophagy and the endo-lysosomal system” (Autophagy, 2023).)
